The numbers were not newly measured in patent US10695287B2, “AMPK agonist topical medication for the treatment of certain specific medical conditions, methods of use thereof and wound dressing employing the same” (CERSCI THERAPEUTICS, INC., priority 2015, dated 2020), which cites them from elsewhere.

For the data set, the system named is AMPK. To be noted: topical administration; animal model (rodents); literature (Price et al. 2013; Tillu et al. 2012).

In the case of `Oc1ccc(C=Cc2cc(O)cc(O)c2)cc1` [resveratrol], the mitigation of pain entry is listed as “has shown efficacy in mitigation of pain”.
